Results on six molecules are retold here after ChEMBL document CHEMBL1139006, “Synthesis and in vitro antibiotic activity of 16-membered 9-O-arylalkyloxime macrolides” (2006).

What all share (type): functional
The subject of assay [1] is Streptococcus pneumoniae. The assay can be described thus: Antibacterial activity against macrolide resistant Streptococcus pneumoniae ATCC 700905.
In assay [2] the test system is Staphylococcus aureus. The assay can be described thus: Antibacterial activity against macrolide resistant Staphylococcus aureus ATCC 33591.
Assay [3] deals with Streptococcus pneumoniae. The assay is described as follows: Antibacterial activity against macrolide resistant Streptococcus pneumoniae ATCC 700906.
Assay [4] has as its system Staphylococcus aureus. The assay is described as follows: Antibacterial activity against macrolide resistant Staphylococcus aureus ATCC BAA-44.
Assay [5] has as its system Enterococcus faecalis. The assay can be described thus: Antibacterial activity against Enterococcus faecalis ATCC 51575.
Assay [6] concerns Staphylococcus epidermidis. The assay is described as follows: Antibacterial activity against Staphylococcus epidermidis ATCC 12228.
For assay [7], the system named is Streptococcus pneumoniae. The assay can be described thus: Antibacterial activity against Streptococcus pneumoniae ATCC 700671.
The subject of assay [8] is Streptococcus pneumoniae. The assay can be described thus: Antibacterial activity against Streptococcus pneumoniae ATCC 6301.
Assay [9] deals with Streptococcus pneumoniae. The assay is described as follows: Antibacterial activity against macrolide resistant Streptococcus pneumoniae ATCC 700677.
Assay [10] concerns Staphylococcus aureus. The assay can be described thus: Antibacterial activity against macrolide resistant Staphylococcus aureus ATCC BAA-39.
Assay [11] concerns Streptococcus pneumoniae. The assay is described as follows: Antibacterial activity against Streptococcus pneumoniae ATCC 49619.
For assay [12], the system named is Streptococcus pneumoniae. The assay is described as follows: Antibacterial activity against macrolide resistant Streptococcus pneumoniae ATCC 700676.
Assay [13] concerns Staphylococcus aureus. The assay is described as follows: Antibacterial activity against Staphylococcus aureus ATCC 29213.
Assay [14] relates to Staphylococcus aureus. The assay is described as follows: Antibacterial activity against Staphylococcus aureus ATCC 6538p.
In assay [15] the test system is Staphylococcus aureus. The assay is described as follows: Antibacterial activity against macrolide resistant Staphylococcus aureus ATCC 141541.

Converted amounts (≈) assume the structure as drawn. A value given as a limit tells only on which side of the number the result lay.

In the case of `CC[C@H]1OC(=O)C[C@@H](O)[C@H](C)[C@@H](O[C@@H]2O[C@H](C)[C@@H](O)[C@H](N(C)C)[C@H]2O)[C@@H](CC=O)C[C@@H](C)C(=N\OC/C=C/c2cnc3ccccc3c2)/C=C/C(C)=C/C1CO` (stereo not given in full), the MIC (as a rule, the least concentration at which growth counts as inhibited) is 0.049 µg/mL (≈ 0.0628 µM) in assay [1]; greater than 12.5 µg/mL in [2]; greater than 12.5 µg/mL in assay [3]; greater than 12.5 µg/mL in assay [4]; greater than 12.5 µg/mL in assay [5]; 0.049 µg/mL (≈ 0.0628 µM) in [6]. The MIC in assay [7] was 0.049 µg/mL (≈ 0.0628 µM); in assay [8], 0.025 µg/mL (≈ 0.0321 µM); in [9], greater than 12.5 µg/mL; in [10], greater than 12.5 µg/mL; in [11], 0.025 µg/mL (≈ 0.0321 µM); in assay [12] it was 0.049 µg/mL (≈ 0.0628 µM). Besides, the MIC in [13] was found to be 0.39 µg/mL (≈ 0.5 µM); in assay [14] it was 0.098 µg/mL (≈ 0.126 µM); in assay [15] it was 0.39 µg/mL (≈ 0.5 µM).

As to `CC[C@H]1OC(=O)C[C@@H](O)[C@H](C)[C@@H](O[C@@H]2O[C@H](C)[C@@H](O)[C@H](N(C)C)[C@H]2O)[C@@H](CC=O)C[C@@H](C)C(=N\OCC#Cc2cnc3ccccc3c2)/C=C/C(C)=C/C1CO` (stereo not given in full), the MIC is 0.049 µg/mL (≈ 0.063 µM) in assay [1]; greater than 12.5 µg/mL in assay [2]; greater than 12.5 µg/mL in [3]; greater than 12.5 µg/mL in assay [4]; greater than 12.5 µg/mL in [5]; 0.2 µg/mL (≈ 0.257 µM) in assay [6]. Besides, the minimal inhibitory concentration (MIC) in assay [7] is 0.049 µg/mL (≈ 0.063 µM); in [8], 0.025 µg/mL (≈ 0.0321 µM); in assay [9], greater than 12.5 µg/mL; in assay [10], greater than 12.5 µg/mL; in [11], 0.049 µg/mL (≈ 0.063 µM); in [12] it was 0.049 µg/mL (≈ 0.063 µM). The MIC in assay [13] turned out to be 0.39 µg/mL (≈ 0.501 µM); in assay [14] it was 0.098 µg/mL (≈ 0.126 µM); in [15], 0.78 µg/mL (≈ 1 µM).

For the molecule `CC[C@H]1OC(=O)C[C@@H](O)[C@H](C)[C@@H](O[C@@H]2O[C@H](C)[C@@H](O)[C@H](N(C)C)[C@@H]2O)[C@@H](CCN2CC(C)CC(C)C2)C[C@@H](C)C(=N/OCCCc2ccc3ncccc3c2)/C=C/C(C)=C/C1CO` (stereo not given in full), the MIC in assay [1], in assay [2], in assay [3], in assay [4], in assay [5] and in assay [6] was greater than 12.5 µg/mL in each case. Further, the MIC in assay [7] is 6.25 µg/mL (≈ 7.11 µM); in assay [8], 6.25 µg/mL (≈ 7.11 µM); in assay [9], greater than 12.5 µg/mL; in assay [10] it was greater than 12.5 µg/mL; in assay [11], 6.25 µg/mL (≈ 7.11 µM); in [12], greater than 12.5 µg/mL. The MIC was greater than 12.5 µg/mL in assay [13], 12.5 µg/mL (≈ 14.2 µM) in [14] and greater than 12.5 µg/mL in assay [15].

As to `CC[C@H]1OC(=O)C[C@@H](O)[C@H](C)[C@@H](O[C@@H]2O[C@H](C)[C@@H](O)[C@H](N(C)C)[C@H]2O)[C@@H](CC=O)C[C@@H](C)C(=N/OC/C=C\c2ccc3nccnc3c2)/C=C/C(C)=C/C1CO` (stereo not given in full), the MIC is 0.049 µg/mL (≈ 0.0627 µM) in assay [1]; greater than 12.5 µg/mL in [2]; greater than 12.5 µg/mL in assay [3]; greater than 12.5 µg/mL in assay [4]; greater than 12.5 µg/mL in [5]; 0.2 µg/mL (≈ 0.256 µM) in assay [6]. Further, the MIC in [7] was 0.049 µg/mL (≈ 0.0627 µM); in [8], 0.025 µg/mL (≈ 0.032 µM); in assay [9], greater than 12.5 µg/mL; in [10], greater than 12.5 µg/mL; in [11], 0.025 µg/mL (≈ 0.032 µM); in assay [12], 0.049 µg/mL (≈ 0.0627 µM). Moreover, the MIC in assay [13] worked out at 0.39 µg/mL (≈ 0.499 µM); in assay [14] it was 0.2 µg/mL (≈ 0.256 µM); in [15], 0.39 µg/mL (≈ 0.499 µM).

Take `CC[C@H]1OC(=O)C[C@@H](O)[C@H](C)[C@@H](O[C@@H]2O[C@H](C)[C@@H](O)[C@H](N(C)C)[C@@H]2O)[C@@H](CCN2CC(C)CC(C)C2)C[C@@H](C)C(=O)/C=C/C(C)=C/C1CO` (stereo not given in full): the MIC in assay [1] was 1.56 µg/mL (≈ 2.24 µM); in [2] it was greater than 12.5 µg/mL; in assay [3], greater than 12.5 µg/mL; in [4] it was greater than 12.5 µg/mL; in [5] it was greater than 12.5 µg/mL; in [6] it was 0.78 µg/mL (≈ 1.12 µM). In addition, the MIC in [7] was 0.78 µg/mL (≈ 1.12 µM); in assay [8], 0.39 µg/mL (≈ 0.561 µM); in assay [9] it was greater than 12.5 µg/mL; in [10], greater than 12.5 µg/mL; in assay [11], 0.78 µg/mL (≈ 1.12 µM); in [12], 1.56 µg/mL (≈ 2.24 µM). The figures for the MIC in assay [13], in assay [14] and in assay [15] were 1.56 µg/mL (≈ 2.24 µM), 0.39 µg/mL (≈ 0.561 µM) and 1.56 µg/mL (≈ 2.24 µM), respectively.

Consider `CC[C@H]1OC(=O)C[C@@H](O)[C@H](C)[C@@H](O[C@@H]2O[C@H](C)[C@@H](O)[C@H](N(C)C)[C@@H]2O)[C@@H](CCN2CC(C)CC(C)C2)C[C@@H](C)C(=N\OCCCCc2ccc3ccccc3c2)/C=C/C(C)=C/C1CO` (stereo not given in full), for which the MIC was 12.5 µg/mL (≈ 14 µM) in assay [1]; greater than 12.5 µg/mL in [2]; greater than 12.5 µg/mL in assay [3]; greater than 12.5 µg/mL in assay [4]; greater than 12.5 µg/mL in [5]; greater than 12.5 µg/mL in assay [6]. The MIC in assay [7] was 12.5 µg/mL (≈ 14 µM); in [8], 6.25 µg/mL (≈ 7 µM); in assay [9] it was greater than 12.5 µg/mL; in [10] it was greater than 12.5 µg/mL; in assay [11] it was 12.5 µg/mL (≈ 14 µM); in [12], greater than 12.5 µg/mL. The MIC in assay [13], in [14] and in [15] was greater than 12.5 µg/mL throughout.
